Results reported in patent publication US12485179B2, “Cholecystokinin B receptor targeting for imaging and therapy” (Purdue Research Foundation, priority 2012, dated 2025).

Legend:
CCK2R [1] = biological target: T1, CCK2R (Homo sapiens, UniProt P32239); assay: Binding of 99mTc conjugates to HEK-293 CCK2R cells (cell bound radioactivity); set-up: expressed in transfected cells; host or cells: HEK-293, G418-selected, from Dr. Mark Hellmich (University of Texas at Galveston)
T1 sequence (P32239 1-447): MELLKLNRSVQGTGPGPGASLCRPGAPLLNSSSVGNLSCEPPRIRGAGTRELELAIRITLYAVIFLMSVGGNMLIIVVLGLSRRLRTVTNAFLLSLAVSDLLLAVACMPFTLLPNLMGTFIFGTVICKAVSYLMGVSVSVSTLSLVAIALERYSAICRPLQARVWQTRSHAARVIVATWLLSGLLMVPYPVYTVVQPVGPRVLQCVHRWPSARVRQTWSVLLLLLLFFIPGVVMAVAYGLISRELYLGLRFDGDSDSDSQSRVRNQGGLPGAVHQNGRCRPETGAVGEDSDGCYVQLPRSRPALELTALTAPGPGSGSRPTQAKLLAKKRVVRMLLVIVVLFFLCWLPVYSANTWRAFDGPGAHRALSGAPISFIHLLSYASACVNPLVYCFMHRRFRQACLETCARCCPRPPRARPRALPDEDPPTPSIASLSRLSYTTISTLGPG
Protocol: CRL-1, CRL-2, CRL-3 and CRL-4 were chelated to ^99mTc and tested for binding using two transfected cell lines of HEK-CCK2R (HEK-293 CCK2R) and HEK-CCK2R splice cell line (HEK CCK2i4svR), obtained from Dr. Mark Hellmich (University of Texas at Galveston). Cells were cultured in Dulbecco's modified Eagles (Gibco) supplemented with 10% Fetal Bovine Serum and G418 disulfate (SIGMA; 400 μg/ml), 1% penicillin/streptomycin at 37° C. in a humidified 95% air, 5% CO2 atmosphere.
Competition studies were performed using 100 fold excess of free Z-360 containing corresponding peptide linker and no chelating moiety. HEK 293 CCK2R and HEK CCK2i4svR were seeded onto 24 well plates and allowed to become confluent over 48-72 hours. Spent medium in each well was replaced with 0.5 ml fresh media containing 0.5% BSA and increasing concentrations of the test article. After incubating for 1 h at 37° C. cells were rinsed with incubation solution (2×1.0 ml) to remove any unbound radioactivity. Cells were then resuspended on 0.5 ml 0.25N NaOH and cell radioactivity was counted using a γ-counter. The dissociation constant (KD) was calculated using a plot of cell bound radioactivity versus the concentration of the radiotracer using Graphpad Prism 4 and assuming a non-cooperative single site binding equilibrium.

[2] = tested on: HEK 293 cells expressing CCK2R tumors; assay: In vivo potency, subcutaneous HEK 293 CCK2R tumors; set-up: species or system nu/nu mice; details: for tumor size / growth during the period of the study / antitumor activity in comparison to untreated controls: 2 μmol/kg per injection
Protocol: Following the promising results obtained in vitro with the Z-360 targeted chemotherapeutics, antitumor effects of the compounds were investigated in vivo. HEK 293 cells expressing CCK2R (5.0×10^6 in 50% HC matrigel) were injected in the shoulder of 5-6 week old female nu/nu mice. Tumors were measured in two perpendicular directions every two to three days with vernier calipers, and their volumes calculated as 0.5×L×W^2 where L is the longest axis (in millimeters) and W is the axis perpendicular to L (in millimeters). Dosing solutions were prepared in saline and administered through either the lateral vein of the mice for Tubulysin B conjugates or intraperitoneally for desacetylvinblastine hydrazide conjugates. Dosing was initiated when the subcutaneous tumors reached ˜100 mm^3 in volume. Each mouse received 2 μmol/kg of the test conjugate in 100 microliters of saline per injection, three times a week for three weeks. Mouse weights were also recorded at each dosing as a measure of gross toxicity. Mice in the control groups received no treatment.

[3] = tested on: HEK 293 cells expressing the CCK2R; type: cell-based; details: for cell toxicity / potency: concentration range used (FIG. 16); for IC50: dose dependent toxicity
Protocol: FIGS. 13A-C show the results of a study on the cytotoxicity of conjugate 23 in HEK CCK2R cells, shown at varying hours from introduction. CW-2478 denotes conjugate 23, with FIG. 13A showing values at 2 hours, FIG. 13B showing the values at 4 hours, and FIG. 13C showing the values at 9 hours.
This may partly explain the modest in vivo antitumor observed activity despite its impressive antagonistic effects.

[4] = tested on: subcutaneous PANC-1 tumor; details: oral Z-360 along with gemcitabine, cited from earlier work
CCK2R [5] = biological target: T1, CCK2R; details: cited from earlier work
[6] = three times a week for three weeks

Compound | tumor size / growth during the period of the study [2, 6] | cell toxicity / potency [3] | antitumor activity in comparison to untreated controls [2, 6] | IC50 [3] | other results
CC(C)(C)C(=O)CN1C(=O)[C@H](NC(=O)Nc2cccc(C(=O)N[C@@H](CCC(=O)O)C(=O)N[C@@H](CCC(=O)NC[C@H](O)[C@@H](O)[C@H](O)[C@H](O)CO)C(=O)N[C@@H](CCC(=O)O)C(=O)N[C@@H](CCC(=O)NC[C@H](O)[C@@H](O)[C@H](O)[C@H](O)CO)C(=O)NC[C@H](N)C(=O)N[C@@H](CC(=O)O)C(=O)N[C@@H](CS)C(=O)O)c2)CN(C2CCCCC2)c2ccccc21 [CRL-2 ^99mTc, metal not drawn] | – | – | – | – | specificity of binding (competition with free Z-360) (CCK2R [1]; compared with CRL-1 99mTc): significantly higher specificity
CC(C)(C)C(=O)CN1C(=O)[C@H](NC(=O)Nc2cccc(C(=O)NC[C@H](N)C(=O)N[C@@H](CC(=O)O)C(=O)N[C@@H](CS)C(=O)O)c2)CN(C2CCCCC2)c2ccccc21 [CRL-4 ^99mTc, metal not drawn] | – | – | – | – | Kd (CCK2R [1]; 1 h at 37° C., 99mTc chelated, read-out: Kd (nM) HEK-293-CCK2R Cells): 270 nM
CC[C@]1(O)CC2CN(CCc3c([nH]c4ccccc34)[C@@](C(=O)OC)(c3cc4c(cc3OC)N(C)[C@H]3[C@@](O)(C(=O)NNC(=O)OCCSSC[C@H](NC(=O)[C@@H](CCC(=O)NC[C@H](O)[C@@H](O)[C@H](O)[C@H](O)CO)NC(=O)[C@@H](CCC(=O)O)NC(=O)[C@@H](CCC(=O)NC[C@H](O)[C@@H](O)[C@H](O)[C@H](O)CO)NC(=O)[C@@H](CCC(=O)O)NC(=O)CCCCCCCN)C(=O)O)[C@H](O)[C@]5(CC)C=CCN6CC[C@]43[C@@H]65)C2)C1 (some centres unmarked) [Unt-DAVBH] | grew at almost the same rate as untreated controls | little to no potency | – | – | –
CCCC(=O)OCN(C(=O)[C@@H](NC(=O)C1CCCCN1C)C(C)CC)[C@H](C[C@@H](OC(C)=O)c1nc(C(=O)N[C@@H](Cc2ccc(O)cc2)C[C@H](C)C(=O)NNC(=O)OCCSSC[C@H](NC(=O)[C@@H](CCC(=O)NC[C@H](O)[C@@H](O)[C@H](O)[C@H](O)CO)NC(=O)[C@@H](CCC(=O)O)NC(=O)[C@@H](CCC(=O)NC[C@H](O)[C@@H](O)[C@H](O)[C@H](O)CO)NC(=O)[C@@H](CCC(=O)O)NC(=O)CCCCCCCN)C(=O)O)cs1)C(C)C (some centres unmarked) [Unt-TubH] | – | little to no potency | modest tumor inhibition | – | –
CC(C)(C)C(=O)CN1C(=O)[C@H](NC(=O)Nc2cccc(C(=O)O)c2)CN(C2CCCCC2)c2ccccc21 [Z-360, (R)-(−)-3-[3-(1-tert-butylcarbonylmethyl-2-oxo-5-cyclohexyl-1,3,4,5-tetrahydro-2H-1,5-benzodiazepin-3-yl)ureido]benzoic acid monohydrate] | – | no concentration dependent cell toxicity | – | – | inhibition of subcutaneous PANC-1 tumor growth ([4]; compared with either agent alone): 27.1%; survival ([4]; compared with the vehicle): significantly increased survival; selectivity ratio over CCK1R (CCK2R [5]; CCK2R over CCK1R): 672; Ki (CCK2R [5]): 0.47 nM
CCCC(=O)OCN(C(=O)[C@@H](NC(=O)C1CCCCN1C)C(C)CC)[C@H](C[C@@H](OC(C)=O)c1nc(C(=O)N[C@@H](Cc2ccc(O)cc2)C[C@H](C)C(=O)NNC(=O)OCCSSC[C@H](NC(=O)[C@@H](CCC(=O)NC[C@H](O)[C@@H](O)[C@H](O)[C@H](O)CO)NC(=O)[C@@H](CCC(=O)O)NC(=O)[C@@H](CCC(=O)NC[C@H](O)[C@@H](O)[C@H](O)[C@H](O)CO)NC(=O)[C@@H](CCC(=O)O)NC(=O)CCCCCCCNC(=O)c2cccc(NC(=O)N[C@@H]3CN(C4CCCCC4)c4ccccc4N(CC(=O)C(C)(C)C)C3=O)c2)C(=O)O)cs1)C(C)C (some centres unmarked) [conjugate 22] | reduction of tumor sizes | – | remarkable antitumor activity | 12 nM | disappearance of tumors ([2]; 2 μmol/kg, three times a week for three weeks, lateral vein): ⅗
CC[C@]1(O)C[C@@H]2CN(CCc3c([nH]c4ccccc34)[C@@](C(=O)OC)(c3cc4c(cc3OC)N(C)[C@H]3[C@@](O)(C(=O)NNC(=O)OCCSSC[C@H](NC(=O)[C@H](CCC(=O)NC[C@H](O)[C@@H](O)[C@H](O)[C@H](O)CO)NC(=O)[C@H](CCC(=O)O)NC(=O)[C@H](CCC(=O)NC[C@H](O)[C@@H](O)[C@H](O)[C@H](O)CO)NC(=O)[C@H](CCC(=O)O)NC(=O)CCCCCCCNC(=O)c5cccc(NC(=O)N[C@@H]6CN(C7CCCCC7)c7ccccc7N(CC(=O)C(C)(C)C)C6=O)c5)C(=O)O)[C@H](O)[C@]5(CC)C=CCN6CC[C@]43[C@@H]65)C2)C1 [conjugate 23] | remain the same size | – | remarkable antitumor activity | – | H & E staining of remaining tumor masses ([2]; conjugate 23 and conjugate 23+competition groups): contain very few malignant cells
tubulysin b [reference compound] | – | – | – | 1.3 nM | –
vinblastine [reference compound] | – | – | – | 8 nM | –
